This note sets out measurements from patent US9434711B2 (Janssen Pharmaceutica, NV, priority 2007, dated 2016).

Read-outs that look alike come from different tables or passages of the source.

This test deals with canine TRPM8 (Canis lupus familiaris, UniProt Q1A7N1). Briefly: In Vitro Canine TRPM8 Functional Assay (Ca2+ fluorescence, icilin activation). The class given is cell-based. The settings on record: for IC50: read-out: IC50; for inhibition at 0.2 µM: read-out: % Inh @ 0.2; for inhibition at 0.5 µM: compound at 0.5 μM, read-out: % Inh @ 0.5. The essentials: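 HEK293 cells stably expressing canine TRPM8 were loaded with Calcium 3 dye (35 min at 37 °C, then 25 min at room temperature). Compound was added and Ca2+ fluorescence was read for 5 min before icilin at a concentration giving about 80% maximal response. EC50/IC50 came from eight-point dose-response curves, quadruplicate wells.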

Setting [1] is: HEK293 cells stably expressing canine TRPM8, icilin activation, eight-point dose-response.
Setting [2] is: compound at 0.2 μM, canine TRPM8, icilin activation.
Where [3] appears, read: canine TRPM8, icilin activation.
The mark [4] stands for this setting: 0.2 μM compound, HEK293 cells stably expressing canine TRPM8, icilin activation.
Where [5] appears, read: HEK293 cells stably expressing canine TRPM8, icilin activation, average of two or more determinations.

Chain of canine TRPM8 (Q1A7N1 1-1104): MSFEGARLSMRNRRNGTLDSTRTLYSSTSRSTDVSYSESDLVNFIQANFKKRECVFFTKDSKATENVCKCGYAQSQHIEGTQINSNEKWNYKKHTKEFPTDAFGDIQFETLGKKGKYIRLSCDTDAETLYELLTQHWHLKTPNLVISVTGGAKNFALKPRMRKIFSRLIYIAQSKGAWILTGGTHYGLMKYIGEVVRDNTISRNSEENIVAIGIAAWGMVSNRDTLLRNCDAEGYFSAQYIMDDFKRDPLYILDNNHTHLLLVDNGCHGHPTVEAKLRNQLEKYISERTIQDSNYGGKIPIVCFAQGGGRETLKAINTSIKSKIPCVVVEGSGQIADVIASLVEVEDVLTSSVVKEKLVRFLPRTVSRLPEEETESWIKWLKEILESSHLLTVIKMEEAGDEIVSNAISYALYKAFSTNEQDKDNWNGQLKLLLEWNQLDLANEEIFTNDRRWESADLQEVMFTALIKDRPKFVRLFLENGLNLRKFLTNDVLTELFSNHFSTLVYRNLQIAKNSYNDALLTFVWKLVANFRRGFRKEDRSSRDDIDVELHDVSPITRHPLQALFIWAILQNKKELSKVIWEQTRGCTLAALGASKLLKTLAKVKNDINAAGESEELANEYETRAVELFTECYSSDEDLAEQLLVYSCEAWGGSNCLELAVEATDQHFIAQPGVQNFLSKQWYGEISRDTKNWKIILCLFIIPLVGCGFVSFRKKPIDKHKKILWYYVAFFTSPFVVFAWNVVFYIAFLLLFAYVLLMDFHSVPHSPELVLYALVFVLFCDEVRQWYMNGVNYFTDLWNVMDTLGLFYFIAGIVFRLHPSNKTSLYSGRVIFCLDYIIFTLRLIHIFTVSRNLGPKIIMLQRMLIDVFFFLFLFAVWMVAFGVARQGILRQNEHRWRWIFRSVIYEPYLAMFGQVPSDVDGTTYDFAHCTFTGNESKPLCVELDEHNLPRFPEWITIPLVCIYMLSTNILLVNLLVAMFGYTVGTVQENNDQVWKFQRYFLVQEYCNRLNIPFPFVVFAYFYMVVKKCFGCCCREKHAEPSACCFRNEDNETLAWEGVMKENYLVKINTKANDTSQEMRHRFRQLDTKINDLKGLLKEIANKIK

As for `Cc1c(N(Cc2ccc(F)c(C(F)(F)F)c2)S(=O)(=O)c2ccc(-c3noc(=O)[nH]3)cc2)sc2ccccc12` [Compound 544, N-(3-Methyl-benzo[b]thiophen-2-yl)-N-(4-fluoro-3-trifluoromethyl-benzyl)-4-(5-oxo-4,5-dihydro-[1,2,4]oxadiazol-3-yl)-benzenesulfonamide], the IC50 under setting [1] is 0.0018 µM. Under setting [2], the inhibition at 0.2 µM stood at 105%.

Turning to `Cc1c(N(CCCC(F)(F)F)S(=O)(=O)CC(F)(F)F)sc2ccccc12` [Compound 672, N-(3-Methyl-benzo[b]thiophen-2-yl)-N-(4,4,4-trifluoro-butyl)-2,2,2-trifluoro-ethanesulfonamide], the 50% inhibitory concentration (IC50) under setting [1] was found to be 0.0749 µM. Moreover, the inhibition at 0.2 µM under setting [2] was 75.3%.

For `O=S(=O)(c1ccc(-c2nnn[nH]2)cc1)N(CCCCC(F)(F)F)c1sc2ccccc2c1Cl` [Compound 580, N-(3-Chloro-benzo[b]thiophen-2-yl)-N-(5,5,5-trifluoro-pentyl)-4-(1H-tetrazol-5-yl)-benzenesulfonamide], the IC50 under setting [1] stood at 0.0221 µM. The inhibition at 0.2 µM under setting [2] is 101%.

Turning to `CN1CCN(C2=C(N(Cc3ccc(F)c(C(F)(F)F)c3)S(=O)(=O)c3ccccc3)S(=O)(=O)c3ccccc32)CC1` [Compound 649, N-(4-Fluoro-3-trifluoromethyl-benzyl)-N-[3-(4-methyl-piperazin-1-yl)-1,1-dioxo-benzo[b]thiophen-2-yl]-benzenesulfonamide], the inhibition at 0.2 µM under setting [2] was found to be 26%.

Take `O=S(=O)(c1ccccc1)N(Cc1ccc(F)c(F)c1)c1cc2cccnc2s1` [Compound 147, N-(3,4-Difluoro-benzyl)-N-thieno[2,3-b]pyridin-2-yl-benzenesulfonamide]: the half-inhibitory concentration (IC50) under setting [1] stood at 0.0782 µM. Further, the inhibition at 0.5 µM under setting [3] was found to be 96%.

Turning to `O=C(O)c1ccc(S(=O)(=O)N(CCN2CCOCC2)c2sc3ccccc3c2Br)cc1` [Compound 277, N-(3-Bromo-benzo[b]thiophen-2-yl)-N-(2-morpholin-4-yl-ethyl)-4-carboxy-benzenesulfonamide], under setting [1], the IC50 is 0.039 µM. Also, under setting [2], the inhibition at 0.2 µM turned out to be 91%.

Regarding `CC(O)c1c(N(Cc2ccc(F)c(C(F)(F)F)c2)S(=O)(=O)c2ccc(C(=O)O)cc2)sc2ccccc12` (stereo not shown) [Compound 335, N-(4-Fluoro-3-trifluoromethyl-benzyl)-N-[3-(1-hydroxy-ethyl)-benzo[b]thiophen-2-yl]-4-carboxybenzenesulfonamide], the concentration for half-maximal inhibition (IC50) under setting [1] is 0.001 µM. The inhibition at 0.2 µM under setting [2] turned out to be 101%.

`Cc1c(N(CCCCC(F)(F)F)S(=O)(=O)c2ccc(-c3n[nH]c(=O)[nH]3)cc2)sc2ccccc12` [Compound 811, N-(3-Methyl-benzo[b]thiophen-2-yl)-N-(5,5,5-trifluoro-pentyl)-4-(5-oxo-4,5-dihydro-1H-[1,2,4]triazol-3-yl)-benzenesulfonamide]: the inhibition at 0.2 µM under setting [4] is 103%. Under setting [5], the half-maximal inhibitory concentration (IC50) worked out at 0.0037 µM.

For the compound `NC1=C(N(CCC2CC2)S(=O)(=O)c2ccccc2)S(=O)(=O)c2ccccc21` [Compound 646, N-(3-Amino-1,1-dioxo-1H-benzo[b]thiophen-2-yl)-N-(2-cyclopropylethyl)-benzenesulfonamide], the inhibition at 0.2 µM under setting [2] is 55%.

Regarding `CC(C)(O)c1c(N(Cc2ccccc2)S(=O)(=O)c2ccc(Br)cc2)sc2ccccc12` [Compound 736, N-(Benzyl)-N-(3-(1-hydroxy-1-methyl-ethyl)-benzo[b]thiophen-2-yl)-4-bromo-benzenesulfonamide], the IC50 under setting [1] was 0.0172 µM. In addition, the inhibition at 0.2 µM under setting [2] amounted to 101%.

For `O=C(Nc1ccc(S(=O)(=O)N(Cc2ccc(F)c(C(F)(F)F)c2)c2sc3ccccc3c2Br)cc1)C(F)(F)F` [Compound 695, N-(3-Bromo-benzo[b]thiophen-2-yl)-N-(4-fluoro-3-trifluoromethyl-benzyl)-4-trifluoroacetamido-benzenesulfonamide], under setting [1], the IC50 is 0.017 µM. Also, the inhibition at 0.2 µM under setting [2] was 101%.

As to `O=C(O)c1cccc(S(=O)(=O)N(Cc2ccc(F)c(C(F)(F)F)c2)c2sc3ncccc3c2Cl)c1` [Compound 814, N-(3-Chloro-thieno[2,3-b]pyridin-2-yl)-N-(4-fluoro-3-trifluoromethyl-benzyl)-3-carboxy-benzenesulfonamide], under setting [4], the inhibition at 0.2 µM turned out to be 80%. Moreover, the half-maximal inhibitory concentration (IC50) under setting [5] stood at 0.138 µM.

On to `CCCCN(c1cc2ccccc2s1)S(=O)(=O)c1ccccc1` [Compound 117, N-(Benzo[b]thiophen-2-yl)-N-(butyl)-benzenesulfonamide], for which the inhibition at 0.5 µM under setting [3] turned out to be 99%.

As to `O=S(=O)(c1ccccc1)N(Cc1ccccc1)c1sc2ccccc2c1Br` [Compound 175, N-(Benzyl)-N-(3-bromo-benzo[b]thiophen-2-yl)-benzenesulfonamide], the concentration for half-maximal inhibition (IC50) under setting [1] was 0.0046 µM. Moreover, the inhibition at 0.5 µM under setting [3] stood at 97%.

On to `COc1ncccc1S(=O)(=O)N(Cc1ccc(F)c(C(F)(F)F)c1)c1sc2ccccc2c1C` [Compound 357, N-(3-Methyl-benzo[b]thiophen-2-yl)-N-(4-fluoro-3-trifluoromethyl-benzyl)-2-methoxy-pyridin-3-ylsulfonamide], for which, under setting [1], the 50% inhibitory concentration (IC50) is 0.019 µM. Further, under setting [2], the inhibition at 0.2 µM stood at 95%.

With `Cc1c(N(Cc2ccc(F)c(C(F)(F)F)c2)S(=O)(=O)c2cnccc2N(C)C)sc2ccccc12` [Compound 360, N-(3-Methyl-benzo[b]thiophen-2-yl)-N-(4-fluoro-3-trifluoromethyl-benzyl)-4-dimethylamino-pyridin-3-yl-sulfonamide], the 50% inhibitory concentration (IC50) under setting [1] came to 0.041 µM.

Consider `CCCCN(c1sc2ccccc2c1C(=O)N(C)C)S(=O)(=O)c1ccc(C(=O)O)cc1` [Compound 469, N-(Butyl)-N-(3-dimethylcarbamoyl-benzo[b]thiophen-2-yl)-4-carboxy-benzenesulfonamide], for which the inhibition at 0.2 µM under setting [2] stood at 13%.

On to `COC(=O)CCCS(=O)(=O)N(Cc1ccc(F)c(C(F)(F)F)c1)c1sc2ccccc2c1C` [Compound 757, N-(4-Fluoro-3-trifluoromethyl-benzyl)-N-(3-methyl-benzo[b]thiophen-2-yl)-3-carbomethoxy-propanesulfonamide], for which the IC50 under setting [1] stood at 0.0108 µM. Further, the inhibition at 0.2 µM under setting [2] stood at 101%.

Regarding `Cc1c(N(CCCC(F)(F)F)S(=O)(=O)c2ccc(C(C)(C)O)cc2)sc2ccccc12` [Compound 371, N-(3-Methyl-benzo[b]thiophen-2-yl)-N-(4,4,4-trifluoro-butyl)-4-(1-hydroxy-1-methyl-ethyl)-benzenesulfonamide], under setting [1], the IC50 is 0.009 µM. Under setting [2], the inhibition at 0.2 µM is 94%.

Consider `Cc1c(N(CCN2CCOCC2)S(=O)(=O)c2ccccc2)sc2ccccc12` [Compound 95, N-(3-Methyl-benzo[b]thiophen-2-yl)-N-(2-morpholin-4-yl-ethyl)-benzenesulfonamide], for which the IC50 under setting [1] is 0.006 µM. Further, the inhibition at 0.2 µM under setting [2] is 97%.

For `CCCCN(c1sc2ccccc2c1Br)S(=O)(=O)N(C)C` [Compound 265, N-(3-Bromo-benzo[b]thiophen-2-yl)-N-(butyl)-N′,N′-dimethylsulfamide], the concentration for half-maximal inhibition (IC50) under setting [1] was found to be 0.022 µM. Besides, the inhibition at 0.2 µM under setting [2] came out at 90%.

Take `Cc1c(N(Cc2ccc(F)c(C(F)(F)F)c2)S(=O)(=O)c2ccc3ncsc3c2)sc2ccccc12` [Compound 65, N-(4-Fluoro-3-trifluoromethyl-benzyl)-N-(3-methyl-benzo[b]thiophen-2-yl)-benzothiazole-6-sulfonamide]: under setting [1], the IC50 is 0.017 µM. Further, under setting [2], the inhibition at 0.2 µM turned out to be 97%.

As to `Cc1c(N(Cc2ccc(F)c(C(F)(F)F)c2)S(=O)(=O)CCCC(=O)O)sc2ccccc12` [Compound 765, N-(4-Fluoro-3-trifluoromethyl-benzyl)-N-(3-methyl-benzo[b]thiophen-2-yl)-3-carboxy-propanesulfonamide], the concentration for half-maximal inhibition (IC50) under setting [1] was 0.0136 µM. Under setting [2], the inhibition at 0.2 µM is 101%.

With `CCCCN(c1sc2ccccc2c1Cl)S(=O)(=O)c1ccc(C(=O)O)cc1` [Compound 477, N-(3-Chloro-benzo[b]thiophen-2-yl)-N-(butyl)-4-carboxy-benzenesulfonamide], the half-maximal inhibitory concentration (IC50) under setting [1] is 0.012 µM. The inhibition at 0.2 µM under setting [2] was 100%.

On to `COc1ccc(Br)cc1CN(c1sc2ccccc2c1Br)S(=O)(=O)c1ccccc1` [Compound 161, N-(3-Bromo-benzo[b]thiophen-2-yl)-N-(5-bromo-2-methoxy-benzyl)-benzenesulfonamide], for which, under setting [1], the IC50 amounted to 0.0554 µM. Moreover, the inhibition at 0.5 µM under setting [3] was determined as 95%.

Consider `O=S(=O)(c1ccc(-c2nnn[nH]2)cc1)N(CCC1CC1)c1sc2ccccc2c1Cl` [Compound 635, N-(3-Chloro-benzo[b]thiophen-2-yl)-N-(2-cyclopropyl-ethyl)-4-(1H-tetrazol-5-yl)-benzenesulfonamide], for which, under setting [1], the IC50 amounted to 0.0074 µM. The inhibition at 0.2 µM under setting [2] came out at 101%.

For the compound `O=Cc1c(N(Cc2ccc(F)c(C(F)(F)F)c2)S(=O)(=O)c2ccc(C(=O)O)cc2)sc2ccccc12` [Compound 299, N-(3-Formyl-benzo[b]thiophen-2-yl)-N-(4-fluoro-3-trifluoromethyl-benzyl)-4-carboxy-benzenesulfonamide], under setting [1], the half-inhibitory concentration (IC50) came to 0.003 µM. In addition, the inhibition at 0.2 µM under setting [2] came to 90%.

On to `O=S(=O)(c1cccnc1)N(Cc1ccc(C(F)(F)F)c(F)c1)c1sc2ccccc2c1Br` [Compound 322, N-(3-Bromo-benzo[b]thiophen-2-yl)-N-(3-fluoro-4-trifluoromethyl-benzyl)-pyridin-3-ylsulfonamide], for which, under setting [1], the concentration for half-maximal inhibition (IC50) came out at 0.01 µM. For the same compound, the inhibition at 0.2 µM under setting [2] is 99%.

Turning to “N-(3-Chloro-benzo[b]thiophen-2-yl)-N-(4,4,4-trifluoro-butyl)-4-(5-oxo-4,5-dihydro-[1,2,4]oxadiazol-3-yl)-benzenesulfonamide [Compound 515]”, the “% Inh @ 0.2 (μM)” value under setting [2] amounted to 49%.

The IC50 is the point on the concentration scale where inhibition reaches its midpoint.
